In US4507318A, “1-Aryl 2-aminomethyl cyclopropane carboxylates (Z) as drugs in the treatment of pain” (Pierre Fabre S.A., priority 1981, dated 1985):
Counter-ions that a name gives are not always drawn. Like-named read-outs stand apart in the source and are kept apart here.

Assays:
[1] = Solubility in water; format: physicochemical
[2] = Solubility in DMA; format: physicochemical
[3] = Toxicity study (ED50 orally and intraperitoneally, method of Miller and Tainter); conditions: in vivo
Procedure: The most interesting compounds of the present invention were subjected to toxicity studies.
The ED50 was determined orally and intraperitoneally and calculated by the method of MILLER and TAINTER (Proc. Soc. Exper. […]. 1944, 57, 261).

[4] = tested on: mice; test: Writhing Syndrome (P.B.Q.), analgesic activity after I.P. p-benzoquinone; format: in vivo; conditions: Mus musculus, po, P.O., read-out: Writhing Syndrome PBQ-ED50 (P.O.)
Procedure: (a) Writhing Syndrome (P.B.Q.)
After I.P. administration of p-benzoquinone to mice, the products were tested by the method of R. OKUN, S. C. LIDDON and L. LASAGNA, J. Pharmacol. Exptl. Therap., 1963, 139, 107. The results are expressed in ED50 in Table 1.

[5] = tested on: mice; test: Hot Plate, analgesic activity; format: in vivo
Procedure: The products were tested subcutaneously in mice (50 mg/kg) by the method of N. B. EDDY and D. LEIMBACH, J. Pharm. Exptl. Therap., 1953, 107, 385.

[6] = ip, intraperitoneally, read-out: ED50 intraperitoneally
[7] = po, per os, read-out: ED50 per os

**Q.** For `CCOC(=O)[C@]1(c2ccccc2)C[C@@H]1CN1CCCC1` (relative stereo) [Example 1, 1-phenyl 1-ethoxycarbonyl-2-pyrrolidinomethyl cyclopropane hydrochloride (Z)], which solubility [1] is on record?
**A.** The solubility was 500 mg/mL.

**Q.** For `CCOC(=O)[C@]1(c2ccccc2)C[C@@H]1CNCCc1ccccc1` (relative stereo) [Example 2, Hydrochloride of 1-phenyl-1-ethoxycarbonyl-2-(2-phenylethyl)amino-methyl cyclopropane (Z)], which solubility [1] is on record?
**A.** Its solubility is 500 mg/mL.

**Q.** For `CCOC(=O)[C@]1(c2ccccc2)C[C@@H]1CNC` (relative stereo) [Example 3, Hydrochloride of 1-phenyl 1-ethoxycarbonyl-2-methyl amino-methyl cyclopropane (Z)], which solubility [1] is on record?
**A.** Its solubility is 500 mg/mL.

**Q.** With `CCOC(=O)[C@]1(c2ccccc2)C[C@@H]1CN(CC)CC` (relative stereo) [Example 4, Hydrochloride of 1-phenyl 1-ethoxycarbonyl-2-diethyl amino-methyl cyclopropane (Z)] as the compound, how does the solubility [1] read?
**A.** Its solubility is 500 mg/mL.

**Q.** With `CCOC(=O)[C@]1(c2ccccc2)C[C@@H]1CN(C)Cc1ccccc1` (relative stereo) [Example 5, Hydrochloride of 1-phenyl 1-ethoxycarbonyl-2-(benzylmethylaminomethyl)cyclopropane (Z)] as the compound, how does the solubility [1] read?
**A.** The solubility was 100 mg/mL.

**Q.** For `CCOC(=O)[C@]1(c2ccccc2)C[C@@H]1CNC(C)(C)C` (relative stereo) [Example 6, Hydrochloride of 1-phenyl 1-ethoxycarbonyl-2-tertbutylamino-methyl cyclopropane (Z)], which solubility [1] is on record?
**A.** The solubility was 170 mg/mL.

**Q.** With `CCOC(=O)[C@]1(c2ccccc2)C[C@@H]1CN(CCO)CCO` (relative stereo) [Example 7, Maleate of 1-phenyl 1-ethoxycarbonyl 2-di(2'-hydroxyethyl)amino-methyl cyclopropane (Z)] as the compound, how does the solubility [1] read?
**A.** The solubility was 500 mg/mL.

**Q.** For `CCOC(=O)[C@]1(c2ccccc2)C[C@@H]1CN1CCN(c2ccccc2)CC1` (relative stereo) [Example 8, Dihydrochloride of 1-phenyl 1-ethoxycarbonyl 2-(4'-phenyl-piperazinomethyl)cyclopropane (Z)], which solubility [1] is on record?
**A.** The solubility was 5 mg/mL.

**Q.** With `CCOC(=O)[C@]1(c2ccccc2)C[C@@H]1CN1CCOCC1` (relative stereo) [Example 9, Hydrochloride of 1-phenyl 1-ethoxycarbonyl 2-morpholino methyl cyclopropane (Z)] as the compound, how does the solubility [1] read?
**A.** Its solubility is 500 mg/mL.

**Q.** Which solubility [1] does the source give for `CCOC(=O)[C@]1(c2ccccc2)C[C@@H]1CN(C)CCO` (relative stereo) [Example 10, Fumarate of 1-phenyl 1-ethoxycarbonyl 2-N-(2'-hydroxyethyl)N-methyl amino-methyl cyclopropane (Z)] here?
**A.** The solubility was 80 mg/mL.

**Q.** For `CCOC(=O)[C@]1(c2ccccc2)C[C@@H]1CN(Cc1ccccc1)Cc1ccccc1` (relative stereo) [Example 11, Hydrochloride of 1-phenyl-1-ethoxycarbonyl 2-dibenzyl amino-methyl cyclopropane (Z)], which “Solubility in water (in words)” value [1] is on record?
**A.** Its value is “insoluble in water”.

**Q.** And the “Solubility in DMA” value [2]?
**A.** The value was 2%.

**Q.** For `C#CC(C)(C)NC[C@H]1C[C@]1(C(=O)OCC)c1ccccc1` (relative stereo) [Example 12, Hydrochloride of 1-phenyl 1-ethoxycarbonyl-2-(1'-1'-dimethyl-2'-propynylaminomethyl)cyclopropane (Z)], which solubility [1] is on record?
**A.** Its solubility is 30 mg/mL.

**Q.** For `CCOCCNC[C@H]1C[C@]1(C(=O)OCC)c1ccccc1` (relative stereo) [Example 13, Hydrochloride of 1-phenyl 1-ethoxycarbonyl 2-(2'-ethoxyethylaminomethyl)cyclopropane (Z)], which solubility [1] is on record?
**A.** The solubility was 500 mg/mL.

**Q.** With `CCOC(=O)[C@]1(c2ccccc2)C[C@@H]1CNCc1ccccc1` (relative stereo) [Example 14, Hydrochloride of 1-phenyl-1-ethoxycarbonyl 2-benzyl amino methyl cyclopropane (Z)] as the compound, how does the solubility [1] read?
**A.** Its solubility is 10 mg/mL.

**Q.** Which solubility [1] does the source give for `CCOC(=O)[C@]1(c2ccccc2)C[C@@H]1CNC(C)C` (relative stereo) [Example 15, Hydrochloride of 1-phenyl 1-ethoxycarbonyl 2-isopropyl aminomethyl cyclopropane (Z)] here?
**A.** The solubility was 500 mg/mL.

**Q.** For `CCOC(=O)[C@]1(c2ccccc2)C[C@@H]1CN(C(C)C)C(C)C` (relative stereo) [Example 16, Maleate of 1-phenyl 1-ethoxycarbonyl 2-diisopropyl aminomethyl cyclopropane (Z)], which solubility [1] is on record?
**A.** The solubility was 100 mg/mL.

**Q.** With `CCOC(=O)[C@]1(c2ccccc2)C[C@@H]1CN(C)CC` (relative stereo) [Example 17, Fumarate of 1-phenyl 1-ethoxycarbonyl 2-(N-methyl-N-ethyl-amino)methyl cyclopropane (Z)] as the compound, how does the solubility [1] read?
**A.** Its solubility is 500 mg/mL.

**Q.** Which solubility [1] does the source give for `CCCCCN(C)C[C@H]1C[C@]1(C(=O)OCC)c1ccccc1` (relative stereo) [Example 18, Fumarate of 1-phenyl 1-ethoxycarbonyl 2-(N-methyl-N-pentylamino)methyl cyclopropane (Z)] here?
**A.** The solubility was 30 mg/mL.

**Q.** Which results are given for `CCOC(=O)[C@]1(c2ccccc2)C[C@@H]1CN(C)C1CCCCC1` (relative stereo) [Example 19, Fumarate of 1-phenyl 1-ethoxycarbonyl 2-N-methyl-N-cyclohexyl-aminomethyl cyclopropane (Z)]?
**A.** Solubility in water (in words) [1]: insoluble in water; Solubility in DMA [2]: 5%

**Q.** For `CCOC(=O)[C@]1(c2ccccc2)C[C@@H]1CN(C)CCN(C)C` (relative stereo) [Example 21, Dihydrochloride of 1-phenyl 1-ethoxycarbonyl-2-(N-methyl N-(2'-dimethylamino)ethyl)aminomethyl cyclopropane (Z)], which solubility [1] is on record?
**A.** The solubility was 500 mg/mL.

**Q.** For `CCOC(=O)[C@]1(c2ccccc2)C[C@@H]1CN(C)CCc1ccccc1` (relative stereo) [Example 30], which LD50 [3, 6] is on record?
**A.** The LD50 was 110 mg/kg.

**Q.** And the LD50 [3, 7]?
**A.** The LD50 was 1000 mg/kg.

**Q.** And the ED50 [4]?
**A.** The ED50 was 80 mg/kg.

**Q.** And the “Hot Plate reaction time” value ([5]; 50 mg/kg SC, mice)?
**A.** Its value is 20 s.

**Q.** For `COC(=O)[C@]1(c2ccccc2)C[C@@H]1CN(C)C` (relative stereo) [Example 34, Hydrochloride of 1-phenyl 1-methoxycarbonyl 2-dimethyl-amino-methyl cyclopropane (Z)], which solubility [1] is on record?
**A.** The solubility was 500 mg/mL.

**Q.** For `CCCOC(=O)[C@]1(c2ccccc2)C[C@@H]1CN(C)C` (relative stereo) [Example 35, Fumarate of 1-phenyl 1-propyloxycarbonyl 2-dimethyl aminomethyl cyclopropane (Z)], which solubility [1] is on record?
**A.** The solubility was 150 mg/mL.

**Q.** Which LD50 [3, 6] does the source give for `CC(C)OC(=O)[C@]1(c2ccccc2)C[C@@H]1CN(C)C` (relative stereo) [Example 36, Hydrochloride of 1-phenyl 1-isopropyloxy-carbonyl 2-dimethylamino methyl cyclopropane (Z)] here?
**A.** Its LD50 is 130 mg/kg.

**Q.** What about the LD50 [3, 7] of the same compound?
**A.** The LD50 was 400 mg/kg.

**Q.** And the ED50 [4]?
**A.** The ED50 was 17 mg/kg.

**Q.** And the “Hot Plate reaction time” value ([5]; 50 mg/kg SC, mice)?
**A.** The value was 40 s.

**Q.** Which LD50 [3, 6] does the source give for `CN(C)C[C@H]1C[C@]1(C(=O)OCc1ccccc1)c1ccccc1` (relative stereo) [Example 37, Hydrochloride of 1-phenyl 1-benzyloxy carbonyl-2-dimethyl aminomethyl cyclopropane (Z)] here?
**A.** The LD50 was 130 mg/kg.

**Q.** What about the LD50 [3, 7] of the same compound?
**A.** The LD50 was 1000 mg/kg.

**Q.** What about the ED50 [4] of the same compound?
**A.** The ED50 was 92 mg/kg.

**Q.** And the “Hot Plate reaction time” value ([5]; 50 mg/kg SC, mice)?
**A.** Its value is 30 s.

**Q.** For `CCOC(=O)[C@]1(c2ccc(Cl)cc2)C[C@@H]1CN(C)C` (relative stereo) [Example 41, 1-(4'-chlorophenyl) 1-ethoxycarbonyl 2-dimethylaminomethyl cyclopropane (Z) hydrochloride], which LD50 [3, 6] is on record?
**A.** The LD50 was 120 mg/kg.

**Q.** And the LD50 [3, 7]?
**A.** The LD50 was 400 mg/kg.

**Q.** And the ED50 [4]?
**A.** The ED50 was 19 mg/kg.

**Q.** And the “Hot Plate reaction time” value ([5]; 50 mg/kg SC, mice)?
**A.** Its value is 39 s.

**Q.** With `CCOC(=O)[C@]1(c2cccc(Cl)c2)C[C@@H]1CN(C)C` (relative stereo) [Example 44, Maleate of 1-(m-chlorophenyl) 1-ethoxycarbonyl 2-dimethylaminomethyl cyclopropane (Z)] as the compound, how does the LD50 [3, 6] read?
**A.** Its LD50 is 170 mg/kg.

**Q.** What about the LD50 [3, 7] of the same compound?
**A.** Its LD50 is 760 mg/kg.

**Q.** What about the ED50 [4] of the same compound?
**A.** The ED50 was 30 mg/kg.

**Q.** What about the “Hot Plate reaction time” value ([5]; 50 mg/kg SC, mice) of the same compound?
**A.** Its value is 28 s.

**Q.** With `CCOC(=O)[C@]1(c2ccc(Cl)c(Cl)c2)C[C@@H]1CN(C)C` (relative stereo) [Example 45, Hydrochloride of 1-(3,4 dichlorophenyl) 1-ethoxycarbonyl 2-dimethylaminomethyl cyclopropane (Z)] as the compound, how does the LD50 [3, 6] read?
**A.** The LD50 was 170 mg/kg.

**Q.** What about the LD50 [3, 7] of the same compound?
**A.** Its LD50 is 550 mg/kg.

**Q.** And the ED50 [4]?
**A.** The ED50 was 60 mg/kg.

**Q.** And the “Hot Plate reaction time” value ([5]; 50 mg/kg SC, mice)?
**A.** Its value is 26 s.

**Q.** For `COC(=O)[C@]1(c2ccc(N)cc2)C[C@@H]1CN(C)C` (relative stereo) [Example 46], which LD50 [3, 6] is on record?
**A.** Its LD50 is 100 mg/kg.

**Q.** And the LD50 [3, 7]?
**A.** Its LD50 is 420 mg/kg.

**Q.** What about the ED50 [4] of the same compound?
**A.** The ED50 was 34 mg/kg.

**Q.** And the “Hot Plate reaction time” value ([5]; 50 mg/kg SC, mice)?
**A.** Its value is 25 s.

**Q.** With `COC(=O)[C@]1(c2ccc([N+](=O)[O-])cc2)C[C@@H]1CN(C)C` (relative stereo) [Example 47, Hydrochloride of 1-(p-nitrophenyl) 1-methoxycarbonyl 2-dimethylaminomethyl cyclopropane (Z)] as the compound, how does the LD50 [3, 6] read?
**A.** The LD50 was 250 mg/kg.

**Q.** And the LD50 [3, 7]?
**A.** The LD50 was 1000 mg/kg.

**Q.** What about the ED50 [4] of the same compound?
**A.** The ED50 was 21 mg/kg.

**Q.** What about the “Hot Plate reaction time” value ([5]; 50 mg/kg SC, mice) of the same compound?
**A.** Its value is 20 s.

**Q.** Which results are given for `CCOC(=O)[C@]1(c2ccc(OC)cc2)C[C@@H]1CN(C)C` (relative stereo) [Example 48, Hydrochloride of 1-(p-methoxyphenyl) 1-ethoxycarbonyl 2-dimethylaminomethyl cyclopropane (Z)]?
**A.** LD50 [3, 6]: 110 mg/kg; LD50 [3, 7]: 420 mg/kg; ED50 [4]: 95 mg/kg; Hot Plate reaction time ([5]; 50 mg/kg SC, mice): 29 s

**Q.** What does the source list for `CCC(=O)O[C@](Cc1ccccc1)(c1ccccc1)[C@H](C)CN(C)C` [Dextropropoxyphene, reference compound]?
**A.** ED50 [4]: 30 mg/kg; Hot Plate reaction time ([5]; mouse, in vivo): 30 s
